The test system of the test is L1210. As to the kind of experiment: Cytotoxicity against mouse L1210 cells. The format is functional, cell-based.

In brackets after ≈: the same amount, converted by molar mass.

For the molecule `CC(C)C[C@@]1(O)C[C@@H](C)[C@H]2[C@@H]1C(=O)[C@H]1[C@@H]3[C@@H](O)[C@H](O)[C@H]4C[C@H](O)CC[C@]4(C)[C@H]3CC[C@]21C`, 4 µg/mL (≈ 8.92 µM) corresponded to half-maximal inhibition (IC50).

Take `CC(C)C[C@@]1(O)C[C@@H](C)[C@H]2[C@@H]1C(=O)[C@H]1[C@@H]3[C@@H](O)[C@H](O)[C@H]4C[C@H](O)[C@@H](O)C[C@]4(C)[C@H]3CC[C@]21C`: it took 4.1 µg/mL (≈ 8.82 µM) to reach half-maximal inhibition (IC50).

As for `CC(C)C[C@@]1(O)C[C@@H](C)[C@H]2[C@@H]1C(=O)[C@H]1[C@@H]3[C@@H](O)[C@H](O)[C@H]4C[C@H](O)[C@@H](O)[C@@H](O)[C@]4(C)[C@H]3CC[C@]21C`, the IC50 (usually the concentration at which inhibition is half-maximal) was over 10 µg/mL.
